Each compound was assayed against IRE1a (Homo sapiens, UniProt O75460) (assay: IRE1a Endoribonuclease Nanoluciferase Assay (XBP1 luciferase reporter in 293T cells)). Conditions: XBP1 nanoluciferase reporter in 293T cells, ER stressor; tested as the salt named.
Assay type: cell-based
Design: endogenous in cells; host or cells: 293T
Description: Compounds disclosed herein were assessed for disruption of IRE1 signaling using a IRE1a Endoribonuclease Nanoluciferase Assay. […] About 24 hours later, the cells were transfected with Effectene. In a 15 mL tube, the following was added: 2 ug XBP1 luciferase reporter plasmid (PGK-Luc2-P2A-XBP1u-Nanoluciferase-PEST); 300 ul EC buffer; and 16 ul Enhancer, followed by incubation at room temp for 5 minutes. […] 2.6 mL cDMEM media was added. Old media was aspirated from the cells, followed by addition of 7 mL fresh media. Full transfection mixture was added dropwise to cells. Cells were incubated for 6 hours, followed by trypsinization, centrifugation and resuspension in 11 mL fresh cDMEM media. 100 μL of cells were plated per a well in a 96 well plate. A day later, ER stressors of choice +/− inhibitors were added. To harvest, media was aspirated from cells completely, then 50 uL 1× passive lysis buffer (Promega: E1941) was added per well and put on shaker (300 rpm) for 30 minutes at room temperature. […] 15 uL OneGlo (nanoluciferase kit, Promega N1630) was added. Plates were spun down, placed on shaker (300 rpm) for 10 minutes. Plates were read on luminometer, 1000 ms integration time per well. 15 uL Stop and Glo (nanoluciferase kit) was added. Plates were spun down, placed on shaker (300 rpm) for 10 minutes. Plates were read on luminometer, 1000 ms second integration time per well.

IRE1a, sequence (O75460 19-977): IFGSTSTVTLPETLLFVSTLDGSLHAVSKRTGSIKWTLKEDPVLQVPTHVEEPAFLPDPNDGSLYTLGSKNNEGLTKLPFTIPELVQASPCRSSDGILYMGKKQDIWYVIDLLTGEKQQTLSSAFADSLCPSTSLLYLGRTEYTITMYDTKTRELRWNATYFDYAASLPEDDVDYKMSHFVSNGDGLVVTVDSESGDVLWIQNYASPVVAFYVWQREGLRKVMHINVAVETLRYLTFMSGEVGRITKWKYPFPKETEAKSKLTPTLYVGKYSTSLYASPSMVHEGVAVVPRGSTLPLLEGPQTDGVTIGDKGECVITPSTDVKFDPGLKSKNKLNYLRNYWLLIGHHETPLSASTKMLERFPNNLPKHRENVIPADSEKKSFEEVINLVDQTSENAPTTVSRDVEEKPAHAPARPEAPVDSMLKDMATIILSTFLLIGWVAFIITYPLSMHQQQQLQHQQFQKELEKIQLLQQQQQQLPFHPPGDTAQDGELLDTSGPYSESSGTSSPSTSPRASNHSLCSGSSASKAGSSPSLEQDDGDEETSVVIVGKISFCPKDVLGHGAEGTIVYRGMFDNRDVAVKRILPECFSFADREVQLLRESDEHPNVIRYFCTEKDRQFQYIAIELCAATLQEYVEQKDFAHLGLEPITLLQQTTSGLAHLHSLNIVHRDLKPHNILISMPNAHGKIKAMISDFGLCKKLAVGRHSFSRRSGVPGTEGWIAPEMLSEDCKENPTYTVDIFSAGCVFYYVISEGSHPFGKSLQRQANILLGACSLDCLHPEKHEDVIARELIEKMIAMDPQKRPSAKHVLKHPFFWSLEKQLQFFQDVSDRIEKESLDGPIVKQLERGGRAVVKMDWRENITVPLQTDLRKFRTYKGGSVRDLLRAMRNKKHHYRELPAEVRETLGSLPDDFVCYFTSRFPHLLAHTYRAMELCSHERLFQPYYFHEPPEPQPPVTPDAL

Row | SMILES | EC50 [nM]
1 | N[C@H]1CC2C[C@@H](Nc3ncc4cc(-c5ccc(NS(=O)(=O)c6ccccc6Cl)c(F)c5)ccc4n3)CC2C1 (stereo partly shown) [Compound 85, N-(4-(2-(((2s,5s)-5-aminoocta-hydropentalen-2-yl)amino)quinazolin-6-yl)-2-fluorophenyl)-2-chlorobenzene-sulfonamide] | 100 to 10000
2 | CCc1cc(-c2cc(OC)c(NS(=O)(=O)c3ccccc3Cl)nn2)cc2cnc(N[C@H]3CC[C@H](N)CC3)nc12 [Compound 66, N-(6-(2-(((1r,4r)-4-aminocyclohexyl)amino)-8-ethylquinazolin-6-yl)-4-methoxypyridazin-3-yl)-2-chlorobenzene-sulfonamide] | 50 to 100
3 | N[C@H]1CCC[C@@H](Nc2ncc3cc(-c4ccc(NS(=O)(=O)c5ccccc5Cl)c(F)c4)ccc3n2)C1 [Compound 75] | 100 to 10000
4 | CCc1cc(-c2cc(NS(=O)(=O)c3ccccc3Cl)n[nH]2)cc2cnc(N[C@H]3CC[C@H](N)CC3)nc12 [Compound 29, N-(5-(2-(((lr,4r)-4-aminocyclohexyl)amino)-8-ethylquinazolin-6-yl)-1H-pyrazol-3-yl)-2-chlorobenzene-sulfonamide] | 100 to 10000
5 | CN[C@H]1CC[C@H](Nc2ncc3cc(-c4cc(F)c(NS(=O)(=O)c5ccccc5Cl)nc4OC)ccc3n2)CC1 [Compound 150, 2-chloro-N-(3-fluoro-6-methoxy-5-(2-(((1r,4r)-4-(methylamino)cyclohexyl)amino)quinazolin-6-yl)pyridin-2-yl)benzenesulfonamide] | 5 to 50
6 | CCc1cc(NS(=O)(=O)c2ccccc2Cl)ccc1-c1cc(CC)c2nc(N[C@H]3CC[C@H](N)CC3)ncc2c1 [Compound 34, N-(4-(2-(((1r,4r)-4-aminocyclohexyl)amino)-8-ethylquinazolin-6-yl)-3-ethylphenyl)-2-chlorobenzene-sulfonamide] | 5 to 50
7 | CCc1cc(-c2nnc(NS(=O)(=O)c3ccccc3Cl)cc2OC)cc2cnc(N[C@H]3CC[C@H](N(C)C)CC3)nc12 [Compound 159, 2-chloro-N-(6-(2-(((1r,4r)-4-(dimethylamino)cyclohexyl)amino)-8-ethylquinazolin-6-yl)-5-methoxypyridazin-3-yl)benzenesulfonamide] | 5 to 50
8 | N[C@@H]1CC[C@@H](Nc2ncc3cc(-c4ccc(NS(=O)(=O)c5ccccc5Cl)c(F)c4)ccc3n2)C1 [Compound 77, N-(4-(2-(((1R,3R)-3-aminocyclopentyl)amino)quinazolin-6-yl)-2-fluorophenyl)-2-chlorobenzene-sulfonamide] | 5 to 50
9 | CCc1cc(-c2ncc(NS(=O)(=O)c3ccccc3Cl)cn2)cc2cnc(N[C@H]3CC[C@H](N)CC3)nc12 [Compound 33, N-(2-(2-(((1r,4r)-4-aminocyclohexyl)amino)-8-ethylquinazolin-6-yl)pyrimidin-5-yl)-2-chlorobenzene-sulfonamide] | < 5
10 | CCc1cc(-c2ccc(NS(=O)(=O)c3ccccc3Cl)nc2OC)cc2cnc(N[C@H]3CC[C@@H](N(C)C)CC3)nc12 [Compound 141, 2-chloro-N-(5-(2-(((1s,4s)-4-(dimethylamino)cyclohexyl)amino)-8-ethylquinazolin-6-yl)-6-methoxypyridin-2-yl)benzenesulfonamide] | 100 to 10000
11 | CCc1cc(-c2ncc(NS(=O)(=O)c3ccccc3Cl)cc2F)cc2cnc(N[C@H]3CC[C@H](N)CC3)nc12 [Compound 52, N-(6-(2-(((1r,4r)-4-aminocyclohexyl)amino)-8-ethylquinazolin-6-yl)-5-fluoropyridin-3-yl)-2-chlorobenzene-sulfonamide] | < 5
12 | CCc1cc(-c2cnc(NS(=O)(=O)c3ccccc3Cl)c(F)c2)cc2cnc(N[C@H]3CC[C@H](N)CC3)nc12 [Compound 55, N-(5-(2-(((1r,4r)-4-aminocyclohexyl)amino)-8-ethylquinazolin-6-yl)-3-fluoropyridin-2-yl)-2-chlorobenzene-sulfonamide] | < 5
13 | CCc1cc(-c2cc(F)c(NS(=O)(=O)c3ccccc3Cl)nc2OC)cc2cnc(N[C@H]3CC[C@H](N(C)C)CC3)nc12 [Compound 128, 2-chloro-N-(5-(2-(((1r,4r)-4-(dimethylamino)cyclohexyl)amino)-8-ethylquinazolin-6-yl)-3-fluoro-6-methoxypyridin-2-yl)benzenesulfonamide] | < 5

Second part, the compound after the results:

Row | EC50 [nM] | SMILES
14 | < 5 | CCc1cc(-c2cnc(NS(=O)(=O)c3ccccc3Cl)nc2OC)cc2cnc(N[C@H]3CC[C@H](N)CC3)nc12 [Compound 46, N-(5-(2-(((1r,4r)-4-aminocyclohexyl)amino)-8-ethylquinazolin-6-yl)-4-methoxypyrimidin-2-yl)-2-chlorobenzene-sulfonamide]
15 | < 5 | CCc1cc(-c2cc(F)c(NS(=O)(=O)c3ccccc3Cl)nc2OC)cc2cnc(NC3CCC(NC)CC3)nc12 (stereo not shown) [Compound 127, 2-chloro-N-(5-(8-ethyl-2-(((1r,4r)-4-(methylamino)cyclohexyl)amino)quinazolin-6-yl)-3-fluoro-6-methoxypyridin-2-yl)benzenesulfonamide]
16 | < 5 | CCc1cc(-c2ccc(NS(=O)(=O)c3ccccc3Cl)nn2)cc2cnc(N[C@H]3CC[C@H](NC)CC3)nc12 [Compound 61, 2-chloro-N-(6-(8-ethyl-2-(((lr,4r)-4-(methylamino)cyclohexyl)amino)quinazolin-6-yl)pyridazin-3-yl)benzene-sulfonamide]
17 | < 5 | CCc1cc(-c2ccc(NS(=O)(=O)c3ccccc3Cl)nc2)cc2cnc(N[C@H]3CC[C@H](N)CC3)nc12 [Compound 27, N-(5-(2-(((lr,4r)-4-aminocyclohexyl)amino)-8-ethylquinazolin-6-yl)pyridin-2-yl)-2-chlorobenzene-sulfonamide]
18 | < 5 | CCc1cc(-c2cc(NS(=O)(=O)c3ccccc3Cl)no2)cc2cnc(N[C@H]3CC[C@H](N)CC3)nc12 [Compound 44, N-(5-(2-(((1r,4r)-4-aminocyclohexyl)amino)-8-ethylquinazolin 6-yl)isoxazol-3-yl)-2-chlorobenzene-sulfonamide]
19 | < 5 | COc1nc(NS(=O)(=O)c2ccccc2Cl)ccc1-c1cc(F)c2nc(N[C@H]3CC[C@H](N(C)C)CC3)ncc2c1 [Compound 148, 2-chloro-N-(5-(2-(((1r,4r)-4-(dimethylamino)cyclohexyl)amino)-8-fluoroquinazolin-6-yl)-6-methoxypyridin-2-yl)benzenesulfonamide]
20 | < 5 | COc1nc(NS(=O)(=O)c2ccccc2Cl)ccc1-c1cc(C)c2nc(N[C@H]3CC[C@H](N(C)C)CC3)ncc2c1 [Compound 133, 2-chloro-N-(5-(2-(((1r,4r)-4-(dimethylamino)cyclohexyl)amino)-8-methylquinazolin-6-yl)-6-methoxypyridin-2-yl)benzenesulfonamide]
21 | < 5 | CCc1cc(-c2ccc(NS(=O)(=O)c3ccccc3Cl)nc2C)cc2cnc(N[C@H]3CC[C@H](NC)CC3)nc12 [Compound 122, 2-chloro-N-(5-(8-ethyl-2-(((1r,4r)-4-(methylamino)cyclohexyl)amino)quinazolin-6-yl)-6-methylpyridin-2-yl)benzenesulfonamide]
22 | < 5 | CCc1cc(-c2ccc(NS(=O)(=O)c3ccccc3Cl)nc2C)cc2cnc(N[C@H]3CC[C@H](N(C)CCOC)CC3)nc12 [Compound 132, 2-chloro-N-(5-(8-ethyl-2-(((1r,4r)-4-((2-methoxyethyl)(methyl)amino)cyclohexyl)amino)quinazolin-6-yl)-6-methylpyridin-2-yl)benzenesulfonamide]

— patent publication US12479818B2, “Treatment of fibrosis with IRE1 small molecule inhibitors” (Cornell University, priority 2019, dated 2025)
